{
  "source": "patent US10724101B2",
  "about": "“Biomarker SCNN1B for gastric cancer” (The Chinese University of Hong Kong, priority 2016, dated 2020)",
  "tested_on": "gastric cancer cell lines (AGS, KATOIII, MGC803, MKN28, MKN45 and SNU1) with silenced SCNN1B expression",
  "experiment": "Demethylation treatment with 5-Aza; SCNN1B expression by semiquantitative RT-PCR",
  "format": "cell-based, human",
  "conditions": "10 μM 5-Aza for 5 days; six cell lines with silenced SCNN1B; FIG. 4",
  "method": "Semiquantitative RT-PCR was performed in a total volume of 25 μL reaction containing 1× Premix Ex Taq (Takara, Ohtsu, Japan) and 5-10 ng cDNA. The PCR program started with an initial denaturation at 95° C. for 10 min, followed by 27-35 cycles (95° C. for 30 sec, annealing temperature for 30 sec, and 72° C. for 30 sec) of amplification, with a final extension at 72° C. for 10 min. The PCR bands were visualized under ultraviolet light and photographed. The expression of the target gene was normalized by the expression of house-keeping gene β-actin, which served as an internal control.\nCells were seeded at a density of 1×10^5/100-mm dishes and grew for 24 hr. Cells were then treated with 10 μM 5-aza-2′-deoxycytidine (“5-Aza”) (Sigma-Aldrich) for 5 days. The 5-Aza was replenished every day. The gene expression of SCNN1B was evaluated using semiquantitative RT-PCR.",
  "data": [
    {"compound": "Nc1ncn([C@H]2C[C@H](O)[C@@H](CO)O2)c(=O)n1", "note": "[5-Aza, 5-aza-2′-deoxycytidine]", "values": [
      {"measurement": "expression of SCNN1B after demethylation treatment", "result": "Restored expression of SCNN1B"}
    ]}
  ]
}
